From patent US8871747B2, “Urea and thiourea derivatives” (Topotarget A/S, priority 2008, dated 2014)
Counter-ions that a name gives are not always drawn.

Test system: A2780 cells
Experiment: In vitro cell proliferation assay (WST-1 assay)
Format: cell-based
Details: Homo sapiens, total incubation time 72 h, WST-1 viable cell readout
Procedure: A2780 cells were seeded in 96-well plates at 3×10^3 cells/well in 100 μL of culture medium, 8 wells were left empty for media only controls.
After 24 h the compound titrations were performed, in a separate dilution plate, by serially diluting the compounds of general formula (I) in culture medium. A 100 μL of each dilution was added to the plated cells, this was done in triplicate, and controls (e.g. DMSO and blanks) were included. The plates were incubated for 24 h at 37° C. in a CO2 incubator. The compound titrations were repeated in a separate dilution plate after 24 h. The media plus compound from the assay plates were then aspirated. A 100 μL of media was then added to all wells, followed by 100 μL of each compound dilution. The plates were incubated for a further 48 h at 37° C. in a CO2 incubator (total incubation time 72 h). The number of viable cells was then assessed using Cell Proliferation Reagent WST-1. 10 μL of WST-1 reagent added to each well and incubated for one to four hours at 37° C. in CO2 incubator. The absorbance was measured (450 nm/690 nm).
The activity of compounds of general formula (I) in reducing the number of viable cells was calculated as: % activity=[(S^C−B)/(S^O−B)]×100
S^C denotes signal measured in the presence of test compound, S^O denotes signal detected in the absence of compound, and B denotes background signal, measured in blank wells containing medium only. Analyse data using GraphPad Prism.

Row | Compound | IC50 [nM]
1 | O=C(NCCCCCCS(=O)(=O)NOCC1CCCCC1)Nc1ccncc1 [Compound 1001, N-(cyclohexylmethoxy)-6-(3-pyridin-4-ylureido)hexane-1-sulfonamide] | 13.5
2 | O=C(NCCCCCCC(=O)N(OCCN1CCOCC1)C1CCCCC1)Nc1ccncc1 [Compound 1002, N-Cyclohexyl-N-(2-morpholinoethoxy)-7-(3-pyridin-4-ylureido)heptanamide] | 1.49
3 | O=S(=O)(CCCCCCNC(=S)Nc1ccncc1)N(OCCN1CCOCC1)C1CCCCC1 [Compound 1005, N-Cyclohexyl-N-(2-morpholinethoxy)-6-(3-pyridin-4-ylthioureido)hexane-1-sulfonamide oxalate] | 0.34
4 | O=C(NCCCCCCS(=O)(=O)N(OCCN1CCOCC1)C1CCCCC1)Nc1ccncc1 [Compound 1008, N-Cyclohexyl-N-(2-morpholinethoxy)-6-(3-pyridin-4-ylureido)hexane-1-sulfonamide oxalate] | 0.23
5 | O=C(NCCCCCCC(=O)N(OCCN1CCOCC1)C1CCCCC1)NCc1cccnc1 [Compound 1009, N-cyclohexyl-N-(2-morpholinoethoxy)-7-(3-(pyridin-3-ylmethyl)ureido)heptanamide] | 0.33
6 | COCCOCCOCCN(OCC1CCCCC1)S(=O)(=O)CCCCCCNC(=O)NCc1cccnc1 [Compound 1013, N-(cyclohexylmethoxy)-N-(2-(2-(2-methoxyethoxy)ethoxy)ethyl)-6-(3-(pyridin-3-ylmethyl)ureido)hexane-1-sulfonamide] | 0.11
7 | O=C(CCCCCCNC(=S)NCc1cccnc1)N(OCCN1CCOCC1)C1CCCCC1 [Compound 1015, N-cyclohexyl-N-(2-morpholinoethoxy)-7-(3-(pyridin-3-ylmethyl)thioureido)heptanamide] | 0.89
8 | O=C(NCCCCCCS(=O)(=O)N1CCCCO1)NCc1cccnc1 [Compound 1018, hydrochloride] | 14
9 | O=C(NCCCCCCC(=O)N(OCCN1CCOCC1)C1CCCCC1)NCCc1cccnc1 [Compound 1020] | 1.34
10 | CC(C)N(OCCN1CCOCC1)S(=O)(=O)CCCCCCNC(=O)NCc1cccnc1 [Compound 1022, N-Isopropyl-N-(2-morpholinoethoxy)-6-(3-(pyridin-3-ylmethyl)ureido)hexane-1-sulfonamide] | 2.23
11 | O=C(NCCCCCCS(=O)(=O)N(CCCN1CCOCC1)C1CCCCC1)Nc1ccncc1 [Compound 1026, N-Cyclohexyl-N-(3-morpholinopropyl)-6-(3-pyridin-4-ylureido)hexane-1-sulfonamide] | 0.23
12 | O=C(NCCCCCCS(=O)(=O)N(CCN1CCOCC1)OCC1CCCCC1)NCc1cccnc1 [Compound 1031, N-(cyclohexylmethoxy)-N-(2-morpholinoethyl)-6-(3-(pyridin-3-ylmethyl)ureido)hexane-1-sulfonamide] | 0.13
13 | O=C(NCCCCCCS(=O)(=O)N(CCN1CCOCC1)OCC1CCCCC1)NCCc1cccnc1 [Compound 1032, N-(cyclohexylmethoxy)-N-(2-morpholinoethyl)-6-(3-(2-(pyridin-3-yl)ethyl)ureido)hexane-1-sulfonamide] | 14.1
14 | O=C(NCCCCCS(=O)(=O)N(OCCN1CCOCC1)C1CCCCC1)NCc1cccnc1 [Compound 1042] | 6.64
15 | O=C(NCCCCCCCS(=O)(=O)N(OCCN1CCOCC1)C1CCCCC1)NCc1cccnc1 [Compound 1043] | 0.37
16 | CC(C)N(CCCN1CCOCC1)S(=O)(=O)CCCCCCNC(=O)Nc1ccncc1 [Compound 1049, N-Isopropyl-N-(3-morpholinopropyl)-6-(3-pyridin-4-ylureido)hexane-1-sulfonamide] | 0.6
17 | O=C(NCCCCCCS(=O)(=O)N(OCCN1CCOCC1)C1CCCC1)NCc1cccnc1 [Compound 1056, N-Cyclopentyl-N-(2-morpholinoethoxy)-6-(3-(pyridin-3-ylmethyl)ureido)hexane-1-sulfonamide] | 0.58
18 | O=C(NCCCCCCS(=O)(=O)N(OCCN1CCOCC1)C1CCCCCC1)NCc1cccnc1 [Compound 1058, N-Cycloheptyl-N-(2-morpholinoethoxy)-6-(3-(pyridin-3-ylmethyl)ureido)hexane-1-sulfonamide] | 0.63

Row | Compound | IC50 [nM]
19 | O=S(=O)(CCCCCCNC(=S)Nc1ccncc1)N(CCCN1CCOCC1)C1CCCC1 [Compound 1064, N-Cyclopentyl-N-(3-morpholinopropyl)-6-(3-pyridin-4-ylthioureido)hexane-1-sulfonamide] | 0.55
20 | O=C(NCCCCCCC(=O)N(OCCN1CCOCC1)C1CCCCC1)Nc1cccnc1 [Compound 1065, N-Cyclohexyl-N-(2-morpholinoethoxy)-7-(3-pyridin-3-ylureido)heptanamide] | 0.22
21 | O=C(NCCCCCCS(=O)(=O)N(CCCN1CCOCC1)C1CCCC1)Nc1ccncc1 [Compound 1066, N-Cyclopentyl-N-(3-morpholinopropyl)-6-(3-pyridin-4-ylureido)hexane-1-sulfonamide] | 0.27
22 | CCOP(=O)(CCCCCCNC(=O)NCc1cccnc1)NC1CCCCC1 (centres unmarked) [Compound 1067, Ethyl N-cyclohexyl-P-(6-(3-pyridin-3-ylmethyl)ureido)phosphonamidate] | 0.79
23 | O=C(NCCCCCS(=O)(=O)N(CCCN1CCOCC1)C1CCCC1)NCc1cccnc1 [Compound 1069, N-cyclopentyl-N-(3-morpholinopropyl)-5-(3-(pyridin-3-ylmethyl)ureido)pentane-1-sulfonamide] | 3.04
24 | CCOP(=O)(CCCCCCNC(=O)NCc1cccnc1)N1CCCCO1 (centres unmarked) [Compound 1072] | 2.4
25 | O=C(NCCCCCCS(=O)(=O)N(OCCN1CCOCC1)C1CCCCC1)NCc1cccnc1 [Compound 1075, N-Cyclohexyl-N-(2-morpholinoethoxy)-6-(3-(pyridin-3-ylmethyl)ureido)hexane-1-sulfonamide oxalate] | 1.64
26 | O=C(NCCCCCCS(=O)(=O)Nc1ccccc1)NCc1cccnc1 [Compound 1076, N-Phenyl-6-(3-(pyridin-3-ylmethyl)ureido)hexane-1-sulfonamide] | 5.4
27 | O=C(NCCCCCCS(=O)(=O)N(CCN1CCOCC1)OCc1ccccc1)NCc1cccnc1 [Compound 1078, N-(Benzyloxy)-N-(2-morpholinoethyl)-6-(3-(pyridin-3-ylmethyl)ureido)hexane-1-sulfonamide] | 0.46
28 | O=S(=O)(CCCCCCNC(=S)Nc1ccncc1)N(CCCN1CCOCC1)C1CCCCC1 [Compound 1081, N-Cyclohexyl-N-(3-morpholinopropyl)-6-(3-(pyridin-4-ylthioureido)hexane-1-sulfonamide oxalate] | 0.83
29 | O=S(=O)(CCCCCCNC(=S)Nc1ccncc1)N(OCCN1CCOCC1)C1CCCC1 [Compound 1082] | 0.053
30 | O=S(=O)(CCCCCNC(=S)Nc1ccncc1)N(OCCN1CCOCC1)C1CCCC1 [Compound 1083, N-Cyclopentyl-N-(2-morpholinoethoxy)-5-(3-(pyridin-4-ylthioureido)pentane-1-sulfonamide oxalate] | 3.92
31 | O=S(=O)(CCCCCCNC(=S)Nc1ccncc1)N(CCF)OCC1CCCCC1 [Compound 1087, N-(cyclohexylmethoxy)-N-(2-fluoroethyl)-6-(3-pyridin-4-ylthioureido)hexane-1-sulfonamide] | 1.36
32 | O=C(NCCCCCCS(=O)(=O)N(CCF)OCC1CCCCC1)Nc1ccncc1 [Compound 1088, N-(cyclohexylmethoxy)-N-(2-fluoroethyl)-6-(3-pyridin-4-ylureido)hexane-1-sulfonamide] | 0.13
33 | O=C(NCCCCCCS(=O)(=O)N(CCF)OCC1CCCCC1)NCc1cccnc1 [Compound 1089, N-(cyclohexylmethoxy)-N-(2-fluoroethyl)-6-(3-(pyridin-3-ylmethyl)ureido)hexane-1-sulfonamide] | 2.04
34 | O=C(NCCCCCCS(=O)(=O)N(OCCN1CCOCC1)C1CCCC1)Nc1ccncc1 [Compound 1090] | 0.15
35 | O=C(/C=C/c1cccnc1)NCCCCC1CCN(C(=O)c2ccccc2)CC1 [FK866, reference compound] | 0.1
